# Test results from patent US7511041B2, “Fused azole-pyrimidine derivatives” (Bayer Pharmaceuticals Corporation, priority 2002, dated 2009).
# Where two headings read alike, the source gives them in different places.
# How the values were obtained:
# [1] = target: T1, Recombinant human PI3Kγ (full length human PI3K p110γ) (Homo sapiens, UniProt P48736); test: Kinase assay of PI3Kγ (solid-phase lipid kinase assay); assay type: biochemical
# T1 construct: full length human PI3K p110γ fused with a His6-tag at the C-terminus; His6 (C); purchased ALEXIS BIOCHEMICALS #201-055-C010; host or cells: S. frugiperda 9 insect cells
# [2] = Table 1, isozyme not given, read-out: in vitro
# [3] = in vitro PI3K-γ inhibitory activity, class symbols A-D, read-out: in vitro PI3K-gamma
# [4] = in vitro PI3K-γ inhibitory activity, class symbols, read-out: in vitro PI3K-gamma
# T1 sequence (P48736 whole entry, the tested form may be a part): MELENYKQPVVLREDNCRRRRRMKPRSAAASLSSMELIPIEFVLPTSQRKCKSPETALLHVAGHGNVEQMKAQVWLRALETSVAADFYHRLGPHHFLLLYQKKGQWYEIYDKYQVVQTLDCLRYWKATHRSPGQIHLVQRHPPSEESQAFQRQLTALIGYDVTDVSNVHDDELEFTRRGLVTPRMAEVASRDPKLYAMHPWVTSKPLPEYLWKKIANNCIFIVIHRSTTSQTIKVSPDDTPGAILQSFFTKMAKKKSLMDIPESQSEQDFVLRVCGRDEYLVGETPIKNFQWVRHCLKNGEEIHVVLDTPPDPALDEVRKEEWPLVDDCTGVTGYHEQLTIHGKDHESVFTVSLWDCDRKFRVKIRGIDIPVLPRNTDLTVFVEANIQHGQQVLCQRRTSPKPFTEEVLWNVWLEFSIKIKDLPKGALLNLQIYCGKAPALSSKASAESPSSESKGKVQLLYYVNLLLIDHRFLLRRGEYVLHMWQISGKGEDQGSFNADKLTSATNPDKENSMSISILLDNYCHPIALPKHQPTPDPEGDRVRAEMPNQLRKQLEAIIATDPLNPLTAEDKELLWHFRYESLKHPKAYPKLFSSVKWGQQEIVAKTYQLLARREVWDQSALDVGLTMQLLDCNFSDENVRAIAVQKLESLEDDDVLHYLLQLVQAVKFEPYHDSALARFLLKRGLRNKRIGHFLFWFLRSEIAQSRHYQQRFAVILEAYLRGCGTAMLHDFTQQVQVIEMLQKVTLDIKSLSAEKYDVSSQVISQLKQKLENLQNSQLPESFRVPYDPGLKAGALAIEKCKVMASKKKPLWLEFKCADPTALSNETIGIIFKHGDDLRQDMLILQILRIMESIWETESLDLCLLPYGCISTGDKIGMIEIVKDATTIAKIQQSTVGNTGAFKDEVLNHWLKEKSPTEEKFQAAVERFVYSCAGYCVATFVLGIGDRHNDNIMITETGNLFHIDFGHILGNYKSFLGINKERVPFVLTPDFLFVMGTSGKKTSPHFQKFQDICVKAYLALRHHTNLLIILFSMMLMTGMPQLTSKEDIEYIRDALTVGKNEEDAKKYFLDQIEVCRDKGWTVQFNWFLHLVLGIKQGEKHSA
SMILES,"IC50 [1, 2] [nM]",melting point,"IC50 [1, 3] [nM]","IC50 [1, 4] [nM]"
Cc1cccc2c1N=C(/C=C(\O)c1ccc3[nH]cnc3c1)N1CCN=C21.Cl [Example 1-79],< 100,> 285 °C,,
COc1cc2c(c(OC)c1C)N=C(/C=C(\O)c1ccc(NC(C)=O)nc1)N1CCN=C21 [Example 1-64],< 100,> 285 °C,,
Cl.O=C(NC1=Nc2ccc(O)cc2C2=NCCN12)c1cccnc1 [Example 2-211],,> 300 °C,< 100,
Cl.O=C(NC1=Nc2ccccc2C2=NCCN12)c1ccc(C(F)(F)F)nc1 [Example 2-281],,> 250 °C,500 to 2000,
Cc1ncccc1C(=O)NC1=Nc2ccccc2C2=NCCN12 [Example 2-131],,193 to 194 °C,,100 to 500
COc1c(OCC(=O)NC(C)C)ccc2c1N=C(/C=C(\O)c1cccnc1)N1CCN=C21.Cl [Example 1-26],< 100,245 °C (dec.),,
COc1ccc2c(c1OC)N=C(/C=C(\O)c1ccc(NC(C)=O)nc1)N1CCN=C21 [Example 1-12],< 100,270 °C (dec.),,
COc1cccc(C(=O)NC2=Nc3ccccc3C3=NCCN23)c1 [Example 2-233],,202 to 204 °C,> 2000,
Cl.Cn1cnc2cc(C(=O)NC3=Nc4ccccc4C4=NCCN34)ccc21 [Example 2-167],,333 °C (dec.),,100 to 500
Cc1cccc2c1N=C(/C=C(\O)c1cccnc1)N1CCN=C21 [Example 1-75],100 to 500,248 °C,,
Cl.O=C(O)CCCCc1ccc2c(n1)N=C(/C=C(\O)c1cccnc1)N1CCN=C21 [Example 1-206],< 100,267 °C,,
COc1ccc2c(c1OC)N=C(NC(=O)c1ccc3[nH]cnc3c1)N1CCN=C21 [Example 2-49],,289 °C (dec.),,< 100
CC(C)C(=O)NC1=Nc2ccccc2C2=NCCN12 [Example 2-330],,104 to 105 °C,> 2000,
COc1cc2c(c(OC)c1C)N=C(NC(=O)c1ccc3[nH]cnc3c1)N1CCN=C21 [Example 2-81],,202 °C,,100 to 500
O=C(NC1=Nc2ccc(N3CCOCC3)cc2C2=NCCN12)c1cccs1 [Example 2-348],,124 °C,> 2000,
O=C(NC1=Nc2cc(N3CCOCC3)ccc2C2=NCCN12)c1cccnc1 [Example 2-7],,243 °C,,100 to 500
COc1cc2c(cc1OC)C1=NCCN1C(NC(=O)c1ccc(NC(C)=O)nc1)=N2 [Example 2-57],,224 °C,,100 to 500
COc1cc2c(cc1OC)C1=NCCN1C(/C=C(\O)c1ccc(C)nc1)=N2.Cl [Example 1-50],100 to 500,260 °C (dec.),,
COc1cccc2c1N=C(NC(=O)c1cc3cccnc3nc1C)N1CCN=C21 [Example 2-126],,183 to 184 °C,,< 100
O/C(=C\C1=Nc2c(CN3CCOCC3)cccc2C2=NCCN12)c1cccnc1 [Example 1-82],100 to 500,198 to 202 °C (dec.),,
COc1ccc2c(c1)N=C(NC(=O)c1ccc(N)nc1)N1CCN=C21 [Example 2-23],,279 to 282 °C,,< 100
O/C(=C\C1=Nc2cc(CN3CCOCC3)ccc2C2=NCCN12)c1ccc2[nH]cnc2c1 [Example 1-115],100 to 500,219 °C,,
COc1cc(OC)cc(C(=O)NC2=Nc3ccccc3C3=NCCN23)c1 [Example 2-239],,330 °C (dec.),> 2000,
CN(CCO)c1ccc2c(c1)N=C(/C=C(\O)c1ccc3[nH]cnc3c1)N1CCN=C21.Cl [Example 1-110],100 to 500,231 °C (dec.),,

SMILES,"IC50 [1, 2] [nM]",melting point,"IC50 [1, 3] [nM]","IC50 [1, 4] [nM]"
COc1cc2c(cc1OC)C1=NCCN1C(/C=C(\O)c1cccs1)=N2 [Example 1-58],100 to 500,250 °C,,
O=C(NC1=Nc2ccccc2C2=NCCN12)c1ccc(-n2ccnc2)cc1 [Example 2-268],,267 °C (dec.),> 2000,
COc1ncccc1C(=O)NC1=Nc2ccccc2C2=NCCN12 [Example 2-285],,198 to 199 °C,500 to 2000,
COc1cc(OC)c2c(c1)C1=NCCN1C(NC(=O)c1cccnc1)=N2.Cl [Example 2-69],,275 °C (dec.),,100 to 500
COc1ccc(C(=O)NC2=Nc3ccccc3C3=NCCN23)cc1OC.Cl [Example 2-238],,274 °C (dec.),100 to 500,
COc1ccc2c(c1)N=C(NC(=O)c1ccc3[nH]cnc3c1)N1CCN=C21 [Example 2-25],,186 °C,,< 100
O/C(=C\C1=Nc2ccccc2C2=NCCN12)c1ccccc1O [Example 1-170],> 2000,252 to 256 °C,,
CN(C)c1ccc(C(=O)NC2=Nc3ccccc3C3=NCCN23)cc1.O=C(O)C(F)(F)F [Example 2-260],,240 °C (dec.),> 2000,
COc1cc(OC)c2c(c1)C1=NCCN1C(NC(=O)c1cccnc1)=N2 [Example 2-68],,228 °C (dec.),,< 100
COC(=O)c1ccc(C(=O)NC2=Nc3ccccc3C3=NCCN23)cc1 [Example 2-273],,253 to 255 °C,> 2000,
COc1cc2c(cc1OC)C1=NCCN1C(NC(=O)c1cn[nH]c1)=N2.Cl [Example 2-63],,270 °C (dec.),,100 to 500
O=C(O)c1cncc(C(=O)NC2=Nc3ccccc3C3=NCCN23)c1 [Example 2-142],,358 to 359 °C,,100 to 500
CN(C)c1ccc(C(=O)NC2=Nc3ccccc3C3=NCCN23)cn1.Cl [Example 2-283],,311 °C (dec.),500 to 2000,
O=C(NC1=Nc2ccccc2C2=NCCN12)c1cccc([N+](=O)[O-])c1 [Example 2-252],,265 to 267 °C,> 2000,
Cl.O=C(O)CCc1ccc2c(c1)N=C(/C=C(\O)c1cccnc1)N1CCN=C21 [Example 1-201],< 100,273 °C (dec.),,
COc1cc2c(cc1OC)C1=NCCN1C(NC(=O)c1cc(C)nn1C)=N2 [Example 2-64],,236 to 237 °C,,100 to 500
CC(C)n1nnc2cc(C(=O)NC3=Nc4ccccc4C4=NCCN34)ccc21 [Example 2-311],,202 to 203 °C,> 2000,
COc1ccc2c(c1OC)N=C(NC(=O)c1cncc(O)c1)N1CCN=C21.Cl [Example 2-368],,240 °C (dec.),< 100,
O=C(NC1=Nc2ccccc2C2=NCCN12)c1ccc(Cl)s1 [Example 2-301],,198 °C (dec.),> 2000,
O=C(NC1=Nc2cccc(Cl)c2C2=NCCN12)c1cccnc1 [Example 2-357],,243 °C,500 to 2000,
Cc1cnc(C(=O)NC2=Nc3ccccc3C3=NCCN23)cn1 [Example 2-294],,257 °C (dec.),500 to 2000,
CCC(=O)NC1=Nc2cc(OC)c(OC)cc2C2=NCCN12 [Example 2-344],,224 to 225 °C,> 2000,
O=C(NC1=Nc2cc(C(F)(F)F)ccc2C2=NCCN12)c1ccc2[nH]cnc2c1 [Example 2-36],,> 300 °C,,100 to 500
